Results on 15 molecules are retold here after patent US10208089B2, “Modulation of complement activity” (priority 2014, dated 2019).

Starred links: 1 amine or outer side, 2 acyl side, 3 side chain; linkers in the order of their positions; H or OH if unused. Positions of bridges follow the written chain, without caps; N, C: chain ends. Non-standard residues stand in square brackets, D forms with d. Residues, ends and D or L forms follow the SMILES beside them. Trp(7-aza) = N[C@@H](Cc1c[nH]c2ncccc12)C(=O)O; Phe(4-F) = N[C@@H](Cc1ccc(F)cc1)C(=O)O; Phg(2-OMe) = COc1ccccc1[C@H](N)C(=O)O; mXylylene = c1cc(C[*:1])cc(C[*:2])c1; hPhe = N[C@@H](CCc1ccccc1)C(=O)O; dChg = N[C@@H](C(=O)O)C1CCCCC1; Chg = N[C@H](C(=O)O)C1CCCCC1; Phg = N[C@H](C(=O)O)c1ccccc1; Tle = CC(C)(C)[C@H](N)C(=O)O; NMeS = CN[C@@H](CO)C(=O)O; hCys = N[C@@H](CCS)C(=O)O; NMeA = CN[C@@H](C)C(=O)O; Nva = CCC[C@H](N)C(=O)O; Sar = CNCC(=O)O

Chain of C5 (P01031 19-1676): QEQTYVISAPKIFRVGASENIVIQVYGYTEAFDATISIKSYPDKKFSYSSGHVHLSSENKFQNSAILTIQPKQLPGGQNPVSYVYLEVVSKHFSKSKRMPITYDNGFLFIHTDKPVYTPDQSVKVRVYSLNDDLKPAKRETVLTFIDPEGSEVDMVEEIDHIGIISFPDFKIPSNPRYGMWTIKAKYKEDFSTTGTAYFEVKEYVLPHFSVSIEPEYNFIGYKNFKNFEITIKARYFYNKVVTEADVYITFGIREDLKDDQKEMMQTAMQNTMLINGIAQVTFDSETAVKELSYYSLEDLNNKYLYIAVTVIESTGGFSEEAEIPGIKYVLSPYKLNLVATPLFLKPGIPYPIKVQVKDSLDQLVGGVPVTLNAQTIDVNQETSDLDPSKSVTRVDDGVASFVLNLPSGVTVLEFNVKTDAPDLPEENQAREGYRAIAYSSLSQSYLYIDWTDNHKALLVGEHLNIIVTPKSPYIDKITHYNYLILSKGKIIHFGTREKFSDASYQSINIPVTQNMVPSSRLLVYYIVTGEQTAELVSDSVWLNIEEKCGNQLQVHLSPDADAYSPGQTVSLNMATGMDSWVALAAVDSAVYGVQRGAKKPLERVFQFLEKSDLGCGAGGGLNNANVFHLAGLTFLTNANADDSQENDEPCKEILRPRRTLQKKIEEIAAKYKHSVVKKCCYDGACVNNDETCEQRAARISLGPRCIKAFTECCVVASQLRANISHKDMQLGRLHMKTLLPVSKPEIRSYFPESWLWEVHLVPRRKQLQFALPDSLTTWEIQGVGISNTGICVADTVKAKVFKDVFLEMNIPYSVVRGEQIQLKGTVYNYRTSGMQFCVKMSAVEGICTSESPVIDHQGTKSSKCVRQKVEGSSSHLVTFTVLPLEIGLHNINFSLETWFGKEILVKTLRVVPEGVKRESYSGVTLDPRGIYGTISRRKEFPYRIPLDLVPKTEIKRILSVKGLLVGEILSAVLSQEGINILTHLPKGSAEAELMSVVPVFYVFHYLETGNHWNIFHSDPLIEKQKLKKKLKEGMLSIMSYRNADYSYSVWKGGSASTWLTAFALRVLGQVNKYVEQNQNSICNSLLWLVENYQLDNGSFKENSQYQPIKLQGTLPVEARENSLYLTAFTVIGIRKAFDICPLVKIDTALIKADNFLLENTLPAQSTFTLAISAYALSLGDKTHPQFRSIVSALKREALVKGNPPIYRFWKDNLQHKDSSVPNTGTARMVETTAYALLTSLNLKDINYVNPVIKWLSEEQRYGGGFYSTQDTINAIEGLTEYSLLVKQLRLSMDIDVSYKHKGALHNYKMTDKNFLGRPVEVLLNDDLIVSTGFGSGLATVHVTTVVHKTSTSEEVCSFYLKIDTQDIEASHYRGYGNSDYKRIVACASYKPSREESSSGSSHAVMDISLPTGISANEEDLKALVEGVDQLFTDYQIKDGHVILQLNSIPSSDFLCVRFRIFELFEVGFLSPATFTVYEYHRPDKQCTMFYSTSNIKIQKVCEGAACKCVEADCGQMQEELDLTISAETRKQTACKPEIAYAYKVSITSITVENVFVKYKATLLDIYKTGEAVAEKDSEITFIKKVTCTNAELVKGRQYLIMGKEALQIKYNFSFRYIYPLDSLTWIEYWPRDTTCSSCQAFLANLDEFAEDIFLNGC

One assay concerns the target C5 (Homo sapiens, UniProt P01031). In words: Human hemolysis assay (RBC lysis assay using complete human sera). In kind it is cell-based. Further details: with complete human sera (Complement Technology, Tyler Tex.) and polypeptides; tissue Complement Technology, Tyler Tex; host or cells: complete human serum. Conditions: 7-azatryptophan variant polypeptides of R3002; inhibition of red blood cell lysis.
In general, IC50 refers to the concentration that gives 50% inhibition. Turning to `CCC[C@H](NC(=O)[C@@H](NC(=O)[C@@H]1CCCN1C(=O)[C@H](Cc1ccc(O)cc1)NC(=O)[C@H](CCC(=O)O)NC(=O)[C@H](Cc1c[nH]c2ccc(OC)cc12)NC(=O)[C@H](Cc1ccc(O)cc1)NC(=O)[C@@H](NC(=O)[C@H](CC(N)=O)NC(=O)[C@H](CCC(=O)O)NC(=O)[C@H](Cc1ccc(O)cc1)NC(C)=O)C(C)(C)C)c1ccccc1)C(N)=O` [Compound R3094, Ac-Y-E-N-Tbg-Y-(5-MeO)W-E-Y-P-Phg-Nvl-NH2], the IC50 was > 100 µM.

The assay is the same for the next values; noted with them: 7-azatryptophan variant polypeptides of R3008; inhibition of red blood cell lysis.
With `CCC[C@H](NC(=O)[C@@H]1CSCc2cccc(c2)CSC[C@H](NC(=O)[C@H](CCC)NC(C)=O)C(=O)N[C@@H](c2ccccc2)C(=O)N[C@@H]([C@@H](C)O)C(=O)N[C@H](Cc2c[nH]c3ccccc23)C(=O)N[C@@H](CCC(=O)O)C(=O)N[C@@H](Cc2ccc(O)cc2)C(=O)N(C)[C@@H](CO)C(=O)N[C@@H](Cc2c[nH]cn2)C(=O)N1)C(N)=O` [Compound R3132, [mXylyl(2,10)]Ac-Nvl-C-Phg-T-(D-Trp)-E-Y-(N-Me)S-H-C-Nvl-NH2] (Ac-[Nva]C[Phg]T[dW]EY[NMeS]HC[Nva]-NH2; linker 2-10 via mXylylene), the half-inhibitory concentration (IC50) was > 100 µM.

The assay is the same for the next values; noted with them: inhibition of lysis of antibody-sensitized sheep erythrocytes, complete human sera.
As to `CCC[C@H](NC(=O)[C@@H]1CSCc2cccc(c2)CSC[C@H](NC(=O)[C@H](CCC)NC(C)=O)C(=O)N[C@@H](c2ccccc2OC)C(=O)N[C@@H]([C@@H](C)O)C(=O)N[C@@H](Cc2c[nH]c3ncccc23)C(=O)N[C@@H](CCC(=O)O)C(=O)N[C@@H](Cc2ccc(O)cc2)C(=O)N(C)[C@@H](CO)C(=O)N[C@@H](Cc2c[nH]cn2)C(=O)N1)C(N)=O` [Compound R3087, [mXylyl(2,10)]Ac-Nvl-C-(2-OMe)Phg-T-azaTrp-E-Y-(N-Me)S-H-C-Nvl-NH2] (Ac-[Nva]C[Phg(2-OMe)]T[Trp(7-aza)]EY[NMeS]HC[Nva]-NH2; linker 2-10 via mXylylene), the IC50 was > 25 µM.

With `CCC[C@H](NC(=O)[C@@H]1CSCc2cccc(c2)CSC[C@H](NC(=O)[C@H](CCC)NC(C)=O)C(=O)N[C@@H](c2ccccc2)C(=O)N[C@@H]([C@@H](C)O)C(=O)N[C@@H](Cc2c[nH]c3ncccc23)C(=O)N[C@@H](CCC(=O)O)C(=O)N[C@@H](Cc2ccc(F)cc2)C(=O)N(C)[C@@H](CO)C(=O)N[C@@H](Cc2c[nH]cn2)C(=O)N1)C(N)=O` [Compound R3073, [mXyly1(2,10)]Ac-Nvl-C-Phg-T-azaTrp-E-Phe(4-F)-(N-Me)S-H-C-Nvl-NH2] (Ac-[Nva]C[Phg]T[Trp(7-aza)]E[Phe(4-F)][NMeS]HC[Nva]-NH2; linker 2-10 via mXylylene), the IC50 amounted to 0.403 µM.

Take `CCC[C@H](N)C(=O)N[C@H]1CSCc2cccc(c2)CSC[C@@H](C(=O)N[C@H](C(=O)N(C)[C@@H](C)C(N)=O)c2ccccc2)NC(=O)[C@H](CC(C)C)NC(=O)CN(C)C(=O)[C@H](CC(N)=O)NC(=O)[C@H](c2ccccc2)NC(=O)[C@H](C(C)(C)C)NC(=O)[C@H](Cc2ccc(O)cc2)NC1=O` [Compound R3052, [mXylyl(2,9)]Nvl-C-Y-Tbg-Phg-N-(N-Me)G-L-C-Phg-(N-Me)A-NH2] (H-[Nva]CY[Tle][Phg]N[Sar]LC[Phg][NMeA]-NH2; linker 2-9 via mXylylene): the IC50 was > 100 µM.

As to `CCC[C@H](NC(=O)[C@@H]1CCCN1C(=O)[C@H](CCC)NC(=O)[C@@H]1CSCc2cccc(c2)CSC[C@H](NC(=O)[C@H](CCC)NC(C)=O)C(=O)N[C@@H](Cc2ccc(O)cc2)C(=O)N[C@@H](CCC(=O)O)C(=O)N(C)CC(=O)N[C@@H](C(C)(C)C)C(=O)N[C@@H](Cc2ccc(O)cc2)C(=O)N[C@@H](Cc2c[nH]c3ncccc23)C(=O)N[C@@H](CCC(=O)O)C(=O)N1)C(N)=O` [Compound R3009, [mXylyl(2,10)]Ac-Nvl-C-Y-E-(N-Me)G-Tbg-Y-azaTrp-E-C-Nvl-P-Nvl-NH2] (Ac-[Nva]CYE[Sar][Tle]Y[Trp(7-aza)]EC[Nva]P[Nva]-NH2; linker 2-10 via mXylylene), the half-inhibitory concentration (IC50) was > 100 µM.

On to `CC(=O)N[C@H]1CSCc2cccc(c2)CSC[C@@H](C(=O)N[C@@H](CC(=O)O)C(=O)N[C@H](C(=O)N[C@@H](Cc2ccc(O)cc2)C(=O)N[C@@H](Cc2c[nH]c3ccccc23)C(=O)N[C@@H](CCC(=O)O)C(=O)N[C@@H](Cc2ccccc2)C(N)=O)C(C)(C)C)NC(=O)[C@H](Cc2ccccc2)NC(=O)[C@H](CCCNC(=N)N)NC(=O)[C@H](CCC(=O)O)NC(=O)[C@H](C(C)C)NC1=O` [Compound R3138, [mXylyl(1,6)]Ac-C-V-E-R-F-C-D-Tbg-Y-W-E-F-NH2] (Ac-CVERFCD[Tle]YWEF-NH2; linker 1-6 via mXylylene), for which the half-maximal inhibitory concentration (IC50) was 0.0872 µM.

As to `CC(=O)N[C@H]1CSCc2cccc(c2)CSC[C@@H](C(=O)N[C@@H](CC(=O)O)C(=O)N[C@H](C(=O)N[C@@H](Cc2ccc(O)cc2)C(=O)N[C@@H](Cc2c[nH]c3ccccc23)C(=O)N[C@@H](CCC(=O)O)C(=O)N[C@@H](Cc2ccc(O)cc2)C(=O)N2CCC[C@H]2C(N)=O)C(C)C)NC(=O)[C@H](Cc2ccccc2)NC(=O)[C@H](CCCNC(=N)N)NC(=O)[C@H](CCC(=O)O)NC(=O)[C@H](C(C)C)NC1=O` [Compound R3140, [mXv1v1(1,6)]Ac-C-V-E-R-F-C-D-V-Y-W-E-Y-P-NH2], the IC50 turned out to be 0.0179 µM.

Take `CCC[C@H](NC(=O)[C@@H]1CSCc2cccc(c2)CSC[C@H](NC(=O)[C@H](CCC)NC(C)=O)C(=O)N[C@@H](c2ccccc2)C(=O)N[C@@H]([C@@H](C)O)C(=O)N[C@@H](Cc2c[nH]c3ncccc23)C(=O)N[C@@H](CCC(=O)O)C(=O)N[C@@H](CCc2ccccc2)C(=O)N(C)[C@@H](CO)C(=O)N[C@@H](C)C(=O)N1)C(N)=O` [Compound R3095, [mXyly1(2,10)]Ac-Nvl-C-Phg-T-azaTrp-E-(homo)F-(N-Me)S-A-C-Nvl-NH2] (Ac-[Nva]C[Phg]T[Trp(7-aza)]E[hPhe][NMeS]AC[Nva]-NH2; linker 2-10 via mXylylene): the 50% inhibitory concentration (IC50) was > 50 µM.

For `CCC[C@H](NC(=O)[C@@H]1CSCc2cccc(c2)CSC[C@H](NC(=O)[C@H](CCC)NC(C)=O)C(=O)N[C@H](C2CCCCC2)C(=O)N[C@@H]([C@@H](C)O)C(=O)N[C@@H](Cc2c[nH]c3ncccc23)C(=O)N[C@@H](CCC(=O)O)C(=O)N[C@@H](Cc2ccc(O)cc2)C(=O)N(C)[C@@H](CO)C(=O)N[C@@H](C)C(=O)N1)C(N)=O` [Compound R3093, [mXylyl(2,10)]Ac-Nvl-C-(D-Chg)-T-azaTrp-E-Y-(N-Me)S-A-C-Nvl-NH2] (Ac-[Nva]C[dChg]T[Trp(7-aza)]EY[NMeS]AC[Nva]-NH2; linker 2-10 via mXylylene), the IC50 was > 100 µM.

Consider `CCC[C@H](NC(C)=O)C(=O)N[C@@H](CS)C(=O)N[C@@H](Cc1ccc(O)cc1)C(=O)N[C@@H](Cc1c[nH]c2ncccc12)C(=O)N(C)CC(=O)N[C@H](C(=O)N[C@@H](CCC)C(=O)N[C@@H](Cc1c[nH]c2ncccc12)C(=O)N[C@@H](CCC(=O)O)C(=O)N[C@@H](Cc1ccc(O)cc1)C(=O)N1CCC[C@H]1C(=O)N[C@H](C(=O)N1CCC[C@H]1C(N)=O)c1ccccc1)C(C)(C)C` [Compound R3005, Ac-Nvl-C-Y-azaTrp-(N-Me)G-Tbg-Nvl-azaTrp-E-Y-P-Phg-P-NH2] (Ac-[Nva]CY[Trp(7-aza)][Sar][Tle][Nva][Trp(7-aza)]EYP[Phg]P-NH2), for which the 50% inhibitory concentration (IC50) came out at 0.0667 µM.

On to `CCC[C@H](NC(=O)[C@@H]1CCSCc2cccc(c2)CSC[C@H](NC(=O)[C@H](CCC)NC(C)=O)C(=O)N[C@@H](c2ccccc2)C(=O)N[C@@H]([C@@H](C)O)C(=O)N[C@@H](Cc2c[nH]c3ncccc23)C(=O)N[C@@H](CCC(=O)O)C(=O)N[C@@H](Cc2ccc(O)cc2)C(=O)N(C)[C@@H](CO)C(=O)N[C@@H](Cc2c[nH]cn2)C(=O)N1)C(N)=O` [Compound R3105, [mXylyl(2,10)]Ac-Nvl-C-Phg-T-azaTrp-E-Y-(N-Me)S-H-homoC-Nvl-NH2] (Ac-[Nva]C[Phg]T[Trp(7-aza)]EY[NMeS]H[hCys][Nva]-NH2; linker 2-10 via mXylylene), for which the IC50 is > 5 µM.

`CCC[C@H](NC(=O)[C@@H]1CSCc2cccc(c2)CSC[C@H](NC(=O)[C@H](CCC(=O)O)NC(=O)[C@H](Cc2ccc(O)cc2)NC(=O)[C@H](CO)NC(=O)[C@H](CCC)NC(C)=O)C(=O)N[C@@H](C(C)(C)C)C(=O)N[C@@H](Cc2ccc(O)cc2)C(=O)N[C@@H](Cc2c[nH]c3ncccc23)C(=O)N[C@@H](CCC(=O)O)C(=O)N[C@@H](Cc2ccc(O)cc2)C(=O)N2CCC[C@H]2C(=O)N[C@@H](C2CCCCC2)C(=O)N1)C(N)=O` [Compound R3086, [mXylyl(5,13)]Ac-Nvl-S-Y-E-C-Tbg-Y-azaTrp-E-Y-P-Chg-C-Nvl-NH2] (Ac-[Nva]SYEC[Tle]Y[Trp(7-aza)]EYP[Chg]C[Nva]-NH2; linker 5-13 via mXylylene): the IC50 was > 50 µM.

As to `CCC[C@H](NC(=O)[C@@H]1CSCc2cccc(c2)CSC[C@H](NC(=O)[C@@H](NC(C)=O)C2CCCCC2)C(=O)N[C@@H](c2ccccc2)C(=O)N[C@@H]([C@@H](C)O)C(=O)N[C@@H](Cc2c[nH]c3ncccc23)C(=O)N[C@@H](CCC(=O)O)C(=O)N[C@@H](Cc2ccc(O)cc2)C(=O)N(C)[C@@H](CO)C(=O)N[C@@H](C)C(=O)N1)C(N)=O` [Compound R3089, [mXylyl(2,10)]Ac-Chg-C-Phg-T-azaTrp-E-Y-(N-Me)S-A-C-Nvl-NH2] (Ac-[Chg]C[Phg]T[Trp(7-aza)]EY[NMeS]AC[Nva]-NH2; linker 2-10 via mXylylene), the half-maximal inhibitory concentration (IC50) is > 15 µM.

On to `CCC[C@H](NC(=O)[C@@H](NC(=O)[C@@H]1CCCN1C(=O)[C@H](Cc1ccc(O)cc1)NC(=O)[C@H](CCC(=O)O)NC(=O)[C@H](Cc1c[nH]c2ccc(OC)cc12)NC(=O)[C@H](Cc1ccc(O)cc1)NC(=O)[C@@H](NC(=O)[C@H](CC(N)=O)NC(=O)[C@H](CCC(=O)O)NC(=O)[C@H](Cc1ccc(O)cc1)NC(C)=O)C(C)(C)C)c1ccccc1)C(N)=O` [Compound R3094, Ac-Y-E-N-Tbg-Y-(5-MeO)W-E-Y-P-Phg-Nvl-NH2], for which the IC50 is > 100 µM.

For `CCC[C@H](NC(=O)[C@@H]1CSCc2cccc(c2)CSC[C@H](NC(=O)[C@H](CCC)NC(=O)[C@H](Cc2ccc(O)cc2)NC(C)=O)C(=O)N[C@@H](c2ccccc2)C(=O)N[C@@H]([C@@H](C)O)C(=O)N[C@@H](Cc2c[nH]c3ncccc23)C(=O)N[C@@H](CCC(=O)O)C(=O)N[C@@H](Cc2ccc(O)cc2)C(=O)N(C)[C@@H](CO)C(=O)N[C@@H](Cc2c[nH]cn2)C(=O)N1)C(N)=O` [Compound R3113, [mXylyl(3,11)]Ac-Y-Nvl-C-Phg-T-azaTrp-E-Y-(N-Me)S-H-C-Nvl-NH2] (Ac-Y[Nva]C[Phg]T[Trp(7-aza)]EY[NMeS]HC[Nva]-NH2; linker 3-11 via mXylylene), the IC50 is > 5 µM.

For `CCC[C@H](NC(=O)[C@@H]1CSCc2cccc(c2)CSC[C@H](NC(=O)[C@H](CCC)NC(C)=O)C(=O)N[C@@H](c2ccccc2)C(=O)N[C@@H]([C@@H](C)O)C(=O)N[C@H](Cc2c[nH]c3ccccc23)C(=O)N[C@@H](CCC(=O)O)C(=O)N[C@@H](Cc2ccc(O)cc2)C(=O)N(C)[C@@H](CO)C(=O)N[C@@H](Cc2c[nH]cn2)C(=O)N1)C(N)=O` [Compound R3132, [mXylyl(2,10)]Ac-Nvl-C-Phg-T-(D-Trp)-E-Y-(N-Me)S-H-C-Nvl-NH2] (Ac-[Nva]C[Phg]T[dW]EY[NMeS]HC[Nva]-NH2; linker 2-10 via mXylylene), the IC50 is > 100 µM.
